Reference: patent US20120225909A1, “INDAZOLE ANALOG” (priority 2009, published 2012)

Tests used:
[1] = biological target: T1, human β2-adrenergic receptor (Homo sapiens, UniProt P07550); test: Test Case 3-B: human β2-adrenergic receptor agonist activity; format: cell-based; settings: for Emax: read-out: β2 receptor I.A.; for β2 receptor I.A.: Test Case 3-B, maximum response of isoproterenol = 100%
T1 construct: expressed in transfected cells; host or cells: CHO (Chinese hamster ovary) cells, pcDNA3
Method: (§1) Measurement of Human β2-Adrenergic Receptor Agonist Activity
The human β2-adrenergic receptor agonist activity is measured by the same method as in Test Case 1-B using CHO (Chinese hamster ovary) cells transfected by a human β2 gene inserted in pcDNA3 (Invitrogen).

[2] = biological target: T1, human β2-adrenergic receptor; test: Test Case 3-C: human β2-adrenergic receptor agonist activity (Cerep cellular functional GPCR, beta 2); format: cell-based; settings: concentration 10 μM, isoproterenol = 100%
From the text: as §1

[3] = biological target: T2, human β3-adrenergic receptor (Homo sapiens, UniProt P13945); test: Test Case 1-B: human β3-adrenergic receptor agonist activity (cAMP-Screen, 96-well); format: cell-based; settings: for Emax: 0.5 h, read-out: β3 receptor I.A.; for EC50 / β3 receptor I.A.: Test Case 1-B; for EC50: CHO cells, cAMP; for β3 receptor I.A.: maximum response of isoproterenol = 100%
T2 construct: A full-length human β3 gene is obtained from a human genomic library (made by Clontech) using this as the probe; expressed in transfected cells; host or cells: CHO (Chinese hamster ovary) cells, pcDNA3
Procedure, shortened: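 CHO cells stably transfected with full-length human β3 gene, serum-starved 15 min, then exposed to serially diluted compound in Ham's F-12 with 100 mmol/L HEPES and 1 mmol/L IBMX (diluent concentrations) for 30 min. Cells lysed 30 min at 37 °C; cAMP quantified by cAMP-Screen immunoassay.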

[4] = biological target: T3, human α1A-adrenergic receptor (Homo sapiens, UniProt P35348); test: Test Case 4-B: human α1A-adrenergic receptor agonist activity (Cerep cellular functional GPCR, alpha 1A); format: cell-based; design: expressed in transfected cells; settings: concentration 10 μM
T3 sequence (P35348 1-466): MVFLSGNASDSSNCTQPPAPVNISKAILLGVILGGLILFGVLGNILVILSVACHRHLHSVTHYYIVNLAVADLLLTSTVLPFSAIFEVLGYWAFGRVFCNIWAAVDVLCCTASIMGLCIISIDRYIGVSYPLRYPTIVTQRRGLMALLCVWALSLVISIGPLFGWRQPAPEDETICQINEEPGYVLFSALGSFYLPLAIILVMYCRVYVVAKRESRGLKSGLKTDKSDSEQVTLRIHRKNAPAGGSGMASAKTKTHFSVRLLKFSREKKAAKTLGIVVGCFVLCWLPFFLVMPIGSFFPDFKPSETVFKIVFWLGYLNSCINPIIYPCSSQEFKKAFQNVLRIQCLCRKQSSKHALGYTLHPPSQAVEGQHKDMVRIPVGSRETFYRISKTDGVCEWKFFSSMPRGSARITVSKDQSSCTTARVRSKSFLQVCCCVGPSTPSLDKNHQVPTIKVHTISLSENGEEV
From the text: Measurement of Human α1A-Adrenergic Receptor Agonist Activity
The human α1A-adrenergic receptor agonist activity] can be measured by […] Functional GPCR·Gs, alpha 1A (Ref. 722-36a) listed on p. 52 of the Cerep 2008 CATALOG IN VITRO PHARMACOLOGY & ADME-TOX.

[5] = biological target: T4, human β1-adrenergic receptor (Homo sapiens, UniProt P08588); test: Test Case 2-C: human β1-adrenergic receptor agonist activity (Cerep cellular functional GPCR, beta 1); format: cell-based; settings: concentration 10 μM, isoproterenol = 100%
T4 construct: expressed in transfected cells; host or cells: CHO (Chinese hamster ovary) cells, pcDNA3
From the text: (§2) Measurement of Human β1-Adrenergic Receptor Agonist Activity

[6] = tested on: pentobarbital-anesthetized rats; test: Test Case 9: effects on the blood pressure and heart rate in pentobarbital-anesthetized rats; format: in vivo, rat
Method: Effects on the blood pressure and heart rate in pentobarbital-anesthetized rats
The blood pressure and heart rate of rats under pentobarbital anesthesia are measured, and the effects of rapid intravenous administration of the test compound on the blood pressure and heart rate can be studied. After anesthetizing male SD rats (Japan SLC) by intraperitoneal administration of 50 mg/kg of pentobarbital sodium (Tokyo Chemical Industry Co., Ltd.), 25 mg/kg of pentobarbital sodium is administered subcutaneously as maintenance anesthesia. The left femoral vein is exposed and stripped, and a SP10 polyethylene tube filled with saline (connected to a three-way stopcock via a ¼ venous needle) is inserted and left in place in the vein.
The inside of the left thigh is cut, and the femoral artery is exposed and stripped. A polyethylene tube filled with heparinized physiological saline solution (SP31, connected to a three-way stopcock via a Terumo injection needle 22G) is inserted and connected to a pressure transducer. The blood pressure is measured from the pressure transducer via a strain pressure amplifier (AP-641G, Nihon Kohden). The heart rate is measured with the pulse wave of the blood pressure as a trigger via a heart rate counter (AT-601G, Nihon Kohden). The blood pressure, mean blood pressure, and heart rate are output to a recorder and recorded. Furthermore, the mean blood pressure is recorded via the strain pressure amplifier (AP-641G) using the formula {[…]}.
Specifically, 3 mg/mL of test compound is administered rapidly at a volume of 1 mL/kg. The relative value (%) of the values at each point in time versus the mean blood pressure and heart rate before beginning administration are determined for each individual, and the mean±standard deviation of the relative value (%) at the time of the maximum change in each parameter is determined.

Male C57BL/6 Cr mice = test: Test Case 10: mouse piloerection test; format: in vivo
Method: Male C57BL/6 Cr mice (Japan SLC) are used. The dissolved compound is administered rapidly via a caudal vein. The animal is placed on the observation stand 5, 15, 30, and 60 minutes after administration, and the state of piloerection is observed. The state of piloerection is evaluated by the following 7-level scoring system according to the examples by the method of Irwin (Psychopharmacologia 1968, 13; 222-257).
Scoring system: “Score 0”: No piloerection at all; “Score 1”: Slight piloerection (piloerection on part of the body such as the back or neck); “Score 2”: Moderate piloerection (piloerection over the entire body); “Score 3”: Marked piloerection (piloerection over the entire body, conspicuous to the extent that the skin can be seen).
“Score 0.5” is between “Score 0” and “Score 1” “Score 1.5” is between […]. “Score 2.5” is between “Score 2” and “Score 3.”

[7] = biological target: T4, human β1-adrenergic receptor; test: Test Case 2-B: human β1-adrenergic receptor agonist activity; format: cell-based; settings: for Emax: read-out: β1 receptor I.A.; for β1 receptor I.A.: Test Case 2-B, maximum response of isoproterenol = 100%
Method: as §2
The human β1-adrenergic receptor agonist activity is measured by the same method as in Test Case 1-B using CHO (Chinese hamster ovary) cells transfected by a human β1 gene inserted in pcDNA3 (Invitrogen).

[8] = biological target: T3, human α1A-adrenergic receptor; test: Test Case 4-A: human α1A-adrenergic receptor agonist activity (HEK293, Ca flux, Fura-2); format: cell-based; design: expressed in transfected cells; host or cells: HEK293 cells, pcDNA3.1; settings: for Emax: HEK293, read-out: α1A receptor I.A.; for α1A receptor I.A.: Test Case 4-A, maximum response of norepinephrine = 100%, Table 4
Procedure, shortened: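 Fura-2AM-loaded HEK293 cells transfected with human α1A were preincubated for 180 s. Compound (sample plate 10^−5 to 10^−12 M) was added after ~30 s of 340/380 nm excitation ratio reading (500 nm emission, 2-s intervals), followed by 270 s more reading. Ca flux is the peak height: maximum ratio after addition minus the pre-addition ratio.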

[9] = anesthetized male SD rats, 3 mg/kg intravenous over 30 seconds, maximum change, mean±standard deviation
[10] = 10 mg/kg i.v., n=4, observation time 5 min, Score 0
[11] = 10 mg/kg i.v., n=4, observation time 15 min, Score 0
[12] = 10 mg/kg i.v., n=4, observation time 30 min, Score 0
[13] = 10 mg/kg i.v., n=4, observation time 60 min, Score 0
[14] = 10 mg/kg i.v., n=4, observation time 5 min
[15] = 10 mg/kg i.v., n=4, observation time 15 min
[16] = 10 mg/kg i.v., n=4, observation time 30 min

T4 sequence (P08588 whole entry): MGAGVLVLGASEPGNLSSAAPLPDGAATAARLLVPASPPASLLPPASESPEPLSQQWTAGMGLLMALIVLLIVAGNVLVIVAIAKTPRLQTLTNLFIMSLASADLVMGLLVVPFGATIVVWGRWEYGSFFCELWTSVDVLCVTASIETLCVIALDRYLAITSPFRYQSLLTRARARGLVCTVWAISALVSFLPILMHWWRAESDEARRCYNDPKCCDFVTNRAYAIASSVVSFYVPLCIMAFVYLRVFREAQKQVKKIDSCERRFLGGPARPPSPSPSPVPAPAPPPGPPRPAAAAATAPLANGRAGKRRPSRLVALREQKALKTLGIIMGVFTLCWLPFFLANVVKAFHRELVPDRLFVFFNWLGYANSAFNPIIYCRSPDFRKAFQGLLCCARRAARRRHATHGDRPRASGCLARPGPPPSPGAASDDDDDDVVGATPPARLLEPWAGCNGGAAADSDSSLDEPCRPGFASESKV
T1 sequence (P07550 whole entry): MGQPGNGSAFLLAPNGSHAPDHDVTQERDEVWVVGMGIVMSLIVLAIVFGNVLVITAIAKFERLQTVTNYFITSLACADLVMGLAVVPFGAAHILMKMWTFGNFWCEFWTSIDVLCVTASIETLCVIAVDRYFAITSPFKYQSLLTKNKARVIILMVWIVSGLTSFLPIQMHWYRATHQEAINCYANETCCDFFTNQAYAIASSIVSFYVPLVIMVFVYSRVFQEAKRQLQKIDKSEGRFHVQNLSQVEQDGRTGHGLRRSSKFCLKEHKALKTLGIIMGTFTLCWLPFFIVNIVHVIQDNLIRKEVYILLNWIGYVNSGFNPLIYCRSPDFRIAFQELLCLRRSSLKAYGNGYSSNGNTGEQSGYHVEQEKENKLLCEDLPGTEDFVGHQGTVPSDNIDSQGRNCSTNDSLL
T2 sequence (P13945 whole entry): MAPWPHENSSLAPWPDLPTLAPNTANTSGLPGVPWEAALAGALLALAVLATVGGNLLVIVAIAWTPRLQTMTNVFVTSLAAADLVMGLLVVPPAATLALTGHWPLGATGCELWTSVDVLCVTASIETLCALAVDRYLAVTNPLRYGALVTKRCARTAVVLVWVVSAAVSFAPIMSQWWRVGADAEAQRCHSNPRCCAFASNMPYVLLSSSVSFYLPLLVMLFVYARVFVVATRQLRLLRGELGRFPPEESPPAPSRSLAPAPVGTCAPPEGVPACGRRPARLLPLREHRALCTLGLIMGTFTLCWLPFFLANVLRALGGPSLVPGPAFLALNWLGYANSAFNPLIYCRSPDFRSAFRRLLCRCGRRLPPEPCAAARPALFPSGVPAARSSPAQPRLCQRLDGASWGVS

`O=S(=O)(Nc1cccc([C@@H](O)CNCCOc2ccc3c(OC(F)F)n[nH]c3c2)c1)c1cn[nH]c1` [ex113, (R)-N-(3-(2-(2-(3-(difluoromethoxy)-indazol-6-yloxy)ethylamino)-1-hydroxyethyl)phenyl)pyrazole-4-sulfonamide] was tested, and the Emax [1] was 3%, the “β2 receptor % of Control Agonist Response” value [2] was 0.2% and the Emax [3] was 108%. The EC50 [3] was 22 nM, the “α1 receptor % of Control Agonist Response, Control; Epinephrine” value ([4]; epinephrine = 100%) was 6.9% and the “α1 receptor % of Control Agonist Response, Control; Norepinephrine” value ([4]; norepinephrine = 100%) was 6.0%. For the same compound, the “β1 receptor % of Control Agonist Response” value [5] was 3.7%, the “increase in MBP (%)” value [6, 9] was 3.3 ± 1.7% and the “number of experimental animals matching Score 0 (no piloerection)” value (from here on “number … (no piloerection)”) (Male C57BL/6 Cr mice; [10]) was 4. The “number … (no piloerection)” value (Male C57BL/6 Cr mice; [11]) was 4, the “number … (no piloerection)” value (Male C57BL/6 Cr mice; [12]) was 4 and the “number … (no piloerection)” value (Male C57BL/6 Cr mice; [13]) was 4.

In the case of `Cc1n[nH]c2cc(OCCNC[C@H](O)c3cccc(NS(=O)(=O)c4cnn(C)c4)c3)ccc12` [ex79, (R)-N-(3-(1-hydroxy-2-(2-(3-methylindazol-6-yloxy)ethylamino)ethyl)phenyl)-1-methyl-pyrazole-4-sulfonamide], the Emax [1] is reported as 7%, the Emax [3] is reported as 84% and the EC50 [3] is reported as 54 nM. The Emax [7] was 7%, the Emax [8] was 0% and the “increase in MBP (%)” value [6, 9] was 4.2 ± 1.8%. The “number … (no piloerection)” value (Male C57BL/6 Cr mice; [10]) was 3, the “number of experimental animals matching Score 0.5” value (Male C57BL/6 Cr mice; [14]) was 1 and the “number … (no piloerection)” value (Male C57BL/6 Cr mice; [11]) was 3. The “number of experimental animals matching Score 0.5” value (Male C57BL/6 Cr mice; [15]) was 1, the “number … (no piloerection)” value (Male C57BL/6 Cr mice; [12]) was 3 and the “number of experimental animals matching Score 0.5” value (Male C57BL/6 Cr mice; [16]) was 1. For the same compound, the “number … (no piloerection)” value (Male C57BL/6 Cr mice; [13]) was 4.

For `COc1n[nH]c2cc(OCCNC[C@H](O)c3cccc(NS(=O)(=O)c4cccs4)c3)ccc12` [ex45, (R)-N-(3-(1-hydroxy-2-(2-(3-methoxyindazol-6-yloxy)-ethylamino)ethyl)phenyl)thio-phene-2-sulfonamide], the “β2 receptor I.A.” value [1] was 2%, the EC50 [3] was 2.4 nM and the “β3 receptor I.A.” value [3] was 80%. The “β1 receptor I.A.” value [7] was 9%, the “α1A receptor I.A.” value [8] was 0% and the “increase in MBP (%)” value ([6]; rat, in vivo, iv, 3 mg/kg) was 3.9 ± 2.1%. For the same compound, the “number … (no piloerection)” value (Male C57BL/6 Cr mice; in vivo, iv, 10 mg/kg) was 1.

For `COc1n[nH]c2cc(OCCNC[C@H](O)c3cccc(NS(=O)(=O)c4ccccc4F)c3)ccc12` [ex5, (R)-2-fluoro-N-(3-(1-hydroxy-2-(2-(3-methoxyindazol-6-yloxy)ethylamino)ethyl)phenyl)benzenesulfonamide], the Emax [1] was 0%, the Emax [3] was 90% and the EC50 [3] was 90 nM. For the same compound, the Emax [7] was 5%, the Emax [8] was 0% and the “increase in MBP (%)” value [6, 9] was 5.1 ± 2.4%. For the same compound, the “number … (no piloerection)” value (Male C57BL/6 Cr mice; [10]) was 2, the “number of experimental animals matching Score 0.5” value (Male C57BL/6 Cr mice; [14]) was 2 and the “number … (no piloerection)” value (Male C57BL/6 Cr mice; [11]) was 2. For the same compound, the “number of experimental animals matching Score 0.5” value (Male C57BL/6 Cr mice; [15]) was 2, the “number … (no piloerection)” value (Male C57BL/6 Cr mice; [12]) was 2 and the “number of experimental animals matching Score 0.5” value (Male C57BL/6 Cr mice; [16]) was 2. For the same compound, the “number … (no piloerection)” value (Male C57BL/6 Cr mice; [13]) was 2 and the “number of experimental animals matching Score 0.5” value (Male C57BL/6 Cr mice; 10 mg/kg i.v., n=4, observation time 60 min) was 2.

For `O=S(=O)(Nc1cccc([C@@H](O)CNCCOc2ccc3c(C4CC4)n[nH]c3c2)c1)C1CC1` [ex212], the Emax [1] was 15%, the Emax [3] was 95% and the EC50 [3] was 29 nM. For the same compound, the Emax [7] was 6%, the Emax [8] was 0% and the “increase in MBP (%)” value [6, 9] was 2.1 ± 1.7%. For the same compound, the “number … (no piloerection)” value (Male C57BL/6 Cr mice; [10]) was 4, the “number … (no piloerection)” value (Male C57BL/6 Cr mice; [11]) was 4 and the “number … (no piloerection)” value (Male C57BL/6 Cr mice; [12]) was 4. The “number … (no piloerection)” value (Male C57BL/6 Cr mice; [13]) was 4.

With `COc1n[nH]c2cc(OCCNC[C@H](O)c3cccc(NS(=O)(=O)c4cccnc4)c3)ccc12` [ex44, (R)-N-(3-(1-hydroxy-2-(2-(3-methoxyindazol-6-yloxy)-ethylamino)ethyl)phenyl)py-ridine-3-sulfonamide] the “β2 receptor I.A.” value [1] was 5%, the EC50 [3] was 13 nM and the “β3 receptor I.A.” value [3] was 58%. The “β1 receptor I.A.” value [7] was 9%, the “α1A receptor I.A.” value [8] was 0% and the “increase in MBP (%)” value ([6]; rat, in vivo, iv, 3 mg/kg) was 5.7 ± 3.0%. The “number … (no piloerection)” value (Male C57BL/6 Cr mice; in vivo, iv, 10 mg/kg) was 4.

`Cc1n[nH]c2cc(OCCNC[C@H](O)c3cccc(NS(=O)(=O)c4cc(N)ccc4F)c3)ccc12` [ex61] was tested, and the Emax [1] was -3%, the Emax [3] was 64% and the EC50 [3] was 0.2 nM. The Emax [7] was 17%, the Emax [8] was 0% and the “increase in MBP (%)” value [6, 9] was 4.7 ± 1.2%. For the same compound, the “number … (no piloerection)” value (Male C57BL/6 Cr mice; [10]) was 4, the “number … (no piloerection)” value (Male C57BL/6 Cr mice; [11]) was 4 and the “number … (no piloerection)” value (Male C57BL/6 Cr mice; [12]) was 4. For the same compound, the “number … (no piloerection)” value (Male C57BL/6 Cr mice; [13]) was 4.
